The values that follow are results of earlier work, collected in patent US9855260B2, “Quinolinone derivatives” (GlaxoSmithKline LLC, priority 2011, dated 2018).

The data set has as its system ob/ob and db/db mice. To be noted: 8 day administration.

In the case of `NC(=O)c1ncn([C@@H]2O[C@H](CO)[C@@H](O)[C@H]2O)c1N` [AICAR, 5-aminoimidazole-4-carboxamide-1(beta)-D-ribofuranoside], the reduces blood glucose is on record as 35%.
